In assay [1] the test system is TNFα-induced proinflammatory genes. Nature of the assay: TNFα-induced pro-inflammatory gene expression by RT-qPCR in L929sA WT cells. The class given is cell-based, mouse. As to conditions: 10 µM for 1 h, then TNFa, total induction time 6 h. Here is the method:
(§1) RNA was isolated using the RNeasy Purification Kit (Qiagen) according to the manufacturer's instructions. cDNA was synthesised using a PrimeScript kit (Takara). RT-qPCR was performed using Light Cycler 480 SYBR Green I Master Mix (Roche).
(§2) PPARs play crucial roles in controlling inflammatory responses. NF-κB is a transcription factor that plays a pivotal role in the expression of multiple genes involved in the immune and inflammatory responses. To study the potential anti-inflammatory effects of the tetrahydroquinolines and quinolines of the invention, the NF-κB-dependent physiological human IL-8 promoter construct, p1481.IL8P-Luc+, which is stably integrated into L929sA cells, was tested. After transfection, cells were treated at 10 µM with 5a, 5b, 8a, or 8b prior to TNFa stimulation. […] Given the significant decrease in NF-κB-IL8P-Luc+ reporter gene activity observed after treatment with the 2- or 3-prenylated tetrahydroquinolines 5a and 5b and the 3-prenylated quinoline 8b, their potential anti-inflammatory effects at the transcriptional level for other inflammatory mediators was evaluated. To achieve this, the L929sA WT cells were treated with 5a, 5b and 8b at 10 µM for 1 h, followed by TNFa stimulation for a total induction time of 6 h. The expression of inflammatory genes was evaluated by RT-qPCR.
A general note: Quantitative PCR measures a nucleic acid by following its amplification.

The next assay concerns the target T1, hPPARβ/δ (Homo sapiens, UniProt Q03181).
T1 sequence (Q03181 171-441): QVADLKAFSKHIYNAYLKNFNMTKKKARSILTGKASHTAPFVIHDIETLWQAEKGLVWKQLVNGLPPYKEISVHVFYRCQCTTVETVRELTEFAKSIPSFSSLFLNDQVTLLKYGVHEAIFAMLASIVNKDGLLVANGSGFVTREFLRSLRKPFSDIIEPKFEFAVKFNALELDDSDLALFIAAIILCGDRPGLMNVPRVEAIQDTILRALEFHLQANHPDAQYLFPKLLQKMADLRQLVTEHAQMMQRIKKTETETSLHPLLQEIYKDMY
Nature of the assay: PPAR transactivation assay, human chimeric PPAR/Gal4 reporter luciferase system in Cos-7 cells (PPARβ/δ). It counts as cell-based. The protocol: (§3) Transfections were stopped after 16 h by adding DMEM/10% FCS. Cells were detached with trypsin, re-seeded in 96-well plates for 6 h in DMEM/10% FCS, and incubated for 24 h in DMEM/0.2% FCS with increasing concentrations of the test compounds or vehicle (DMSO, 0.1% final concentration). At the end of the experiment, cells were washed once with ice-cold PBS, lysed, and luciferase and β-galactosidase activities were measured. Luciferase activity was normalised to that of the internal control, β-galactosidase. All transfection experiments were performed at least five times.
(§4) EC50 values against human PPARα/Gal4, PPARβ/δ/Gal4 and PPARγ/Gal4 receptors.

The next assay concerns the target T2, hPPARγ (Homo sapiens, UniProt P37231).
T2 sequence (P37231 238-505): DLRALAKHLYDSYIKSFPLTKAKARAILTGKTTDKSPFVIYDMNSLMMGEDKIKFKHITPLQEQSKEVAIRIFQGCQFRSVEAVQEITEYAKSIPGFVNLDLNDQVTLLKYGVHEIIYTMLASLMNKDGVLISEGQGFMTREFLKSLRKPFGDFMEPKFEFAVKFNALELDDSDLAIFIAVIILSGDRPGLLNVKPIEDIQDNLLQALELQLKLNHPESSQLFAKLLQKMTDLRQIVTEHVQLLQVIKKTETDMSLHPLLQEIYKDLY
In words: PPAR transactivation assay, human chimeric PPAR/Gal4 reporter luciferase system in Cos-7 cells (PPARγ). It counts as cell-based. Here is the method:
as §3, §4

A further assay relates to ob/ob mice. Nature of the assay: Gene expression (qPCR) in liver and epididymal white adipose tissue of ob/ob mice. It counts as in vivo. As to conditions: epididymal white adipose tissue and/or liver of ob/ob mice, 10 mg/kg/day, 15 days orally. The protocol:
Animal studies were carried out in accordance with Directive 2010/63/EU for experimentation on animals. The handling of the animals and the experimental protocols were approved by the Animal Experimentation Ethics Committee of the University of Valencia (Protocol No. A1469445706311). Six-week-old male ob/ob mice (C57BL/6.Cg-Lepob/J) were supplied by Charles River Laboratories International (Wilmington, MA). Blood samples were collected from mice fasted for 6 hours to determine basal blood glucose levels. The animals, randomly divided into two groups (N ≈ 10-11 per group), were treated daily with vehicle (1% hydroxyethyl cellulose, Sigma-Aldrich) or with tetrahydroquinoline 5a at 10 mg/kg/day, for 15 days orally. After 15 days of treatment, and 6 h of fasting, the mice were anesthetized by inhalation of isoflurane and blood samples were collected in tubes with heparin or EDTA by intracardiac puncture. Plasma samples were obtained and stored at -80°C. Liver and epididymal white adipose tissue were removed and part of both organs were quickly frozen in liquid N2 for qPCR studies.
Gene expression analysis was carried out by real-time qPCR. To this end, total RNA was extracted from liver and epididymal white adipose tissue biopsies using TRIzol reagent (Invitrogen, Carlsbad, CA, USA). The isolated RNA was retro-transcribed using the Maxima First-Strand kit and amplified with a Luminaris Color qPCR MasterMIX (Fermentas, Whaltham, MA, USA) in a 7900 FastSystem thermal cycler. The mRNA levels were normalized to the expression of the constitutive gene cyclophilin.

Assay [2] relates to hPPARα, hPPARβ/δ, and hPPARγ. In words: PPAR transactivation assays, agonist profile over the three isoforms. As to conditions: always with partial activity on the PPARγ isoform.
In the next assay the test system is Pdk4. Nature of the assay: Pdk4 mRNA expression by RT-qPCR in L929sA WT cells. The class given is cell-based, mouse. As to conditions: 10 µM, 6 h. The protocol: as §1
Pyruvate Dehydrogenase Kinase 4 gene (Pdk4), a well-known target gene of PPARs, encodes a protein that regulates the phosphorylation and inactivation of the pyruvate dehydrogenase complex in response to physiological conditions. This response switches the energy source from glucose to fatty acids to maintain blood glucose levels to, thereby, increase lipid metabolism. Because it is a well-known target gene of PPARs, the effect of the 2- and 3-prenylated esters of tetrahydroquinolines and quinolines on a Pdk4 region reported to bind PPARα, was evaluated. The L929sA cells that were stably transfected with a PDK4-(PPRE)3-Luc+ reporter gene construct were used.

The next assay deals with NF-κB-IL8P-Luc+. In words: NF-κB-IL8P transactivation assay (TNFα-stimulated L929sA cells). As to conditions: 10 µM, 1 h before TNF (2000 IU/ml), total induction time 6 h; compared to GW7647. The class given is cell-based, mouse. Here is the method: L929sA mouse fibroblasts were stably transfected using the calcium phosphate precipitation protocol, as described previously with p1481.IL8P-Luc+ plasmid construct. The indicated induction was performed at least in triplicates. All conditions were solvent-controlled. Subsequently, the cells were washed with PBS and lysed using TROPIX lysis buffer. Cellular luciferase levels were normalised to those of β-galactosidase (TROPIX, Bedford, MA, USA).
as §2

pEC50: −log10 of the molar value.

The term pEC50 denotes −log10 of the EC50, conventionally taken in molar units. A low value points to a high EC50. `CCOC(=O)CC/C(C)=C/CCC1CCc2cc(OCc3ccccc3)ccc2N1C` (centres unmarked) [Compound 5a, Ethyl (E)-7-(6-(benzyloxy)-1-methyl-1,2,3,4-tetrahydroquinolin-2-yl)-4-methylhept-4-enoate]: the “transcription of TNFα-induced proinflammatory genes” value in assay [1] is “downregulated the transcription of TNFα-induced proinflammatory genes such as Cc/5 and II-6”. Further, the Emax at 10 µM at hPPARβ/δ (COS-7, read-out: Efficacy (%) at 10 µmol/L PPARβ/δ) came out at 60%; at hPPARγ (COS-7, read-out: Efficacy (%) at 10 µmol/L PPARγ), 43%. The pEC50 is 5.59 on hPPARβ/δ (human PPARβ/δ/Gal4, Cos-7 cells, concentration range 0.001-10 µmol/L, NA: not active) and 5.57 on hPPARγ (human PPARγ/Gal4, Cos-7 cells, concentration range 0.001-10 µmol/L, NA: not active). Further, the “expression of Acox1” value with ob/ob mice is “increased”. In addition, the “expression of Cpt1a” value with ob/ob mice is listed as “increased”. The “expression of Pdk4” value with ob/ob mice is recorded as “increased”. In addition, the “PPAR agonist activity profile” value in assay [2] was “pan-PPAR agonist activity”. In addition, the “expression of Pdk4 mRNA” value in the assay on Pdk4 is “increased expression levels of Pdk4”. Moreover, the “transactivation of the TNFα-dependent NF-κB-driven reporter” value in the assay on NF-κB-IL8P-Luc+ is listed as “can repress the transactivation of the TNFα-dependent NF-κB-driven reporter”.

These data come from patent publication EP4635565A1, “PRENYLATED TETRAHYDROQUINOLINES AND QUINOLINES WITH PPAR AGONIST ACTIVITY” (Fundación para la Investigación del Hospital Clínico de la …, priority 2024, dated 2025).
